Data published in ChEMBL document CHEMBL1201862, “PubChem BioAssay data set” (2004).
Active and inactive are the calls of the source.

Tests used:
[1] = target: Large T antigen (Simian virus 40, UniProt P03070); assay type: functional, Betapolyomavirus macacae;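 further: Confirmatory-stage PubChem screen for compounds that inhibit SV40 T antigen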
[2] = target: T1, Zinc finger protein mex-5 (Caenorhabditis elegans, UniProt Q9XUB2); test: potency of MEX-5 RNA-binding blockers – biochemical, C. elegans, fluorescence polarization, dose response (AID 1960)
T1 sequence (Q9XUB2 whole entry): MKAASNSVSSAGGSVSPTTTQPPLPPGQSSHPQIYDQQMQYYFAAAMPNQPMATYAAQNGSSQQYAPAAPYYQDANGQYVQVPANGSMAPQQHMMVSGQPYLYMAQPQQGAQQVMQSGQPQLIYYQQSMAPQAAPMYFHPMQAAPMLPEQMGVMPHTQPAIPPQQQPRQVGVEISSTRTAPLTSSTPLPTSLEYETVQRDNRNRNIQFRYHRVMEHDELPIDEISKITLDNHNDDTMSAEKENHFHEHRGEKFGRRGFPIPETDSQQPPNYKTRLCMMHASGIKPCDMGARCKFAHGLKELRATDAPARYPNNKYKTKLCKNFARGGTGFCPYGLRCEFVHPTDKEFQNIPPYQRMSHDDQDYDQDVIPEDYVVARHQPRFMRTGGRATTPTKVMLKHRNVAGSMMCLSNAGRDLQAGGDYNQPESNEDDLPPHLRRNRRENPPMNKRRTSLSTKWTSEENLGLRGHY

[3] = target: T2, RNA-binding protein pos-1 (Caenorhabditis elegans, UniProt G5EF15); test: disruptors of C. elegans POS-1 RNA interaction – biochemical, fluorescence polarization, dose response (AID 1964);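 further: purified POS-1 fused to maltose binding protein made in E. coli; potency of compounds blocking POS-1 binding to fluorescent RNA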
T2 sequence (G5EF15 whole entry): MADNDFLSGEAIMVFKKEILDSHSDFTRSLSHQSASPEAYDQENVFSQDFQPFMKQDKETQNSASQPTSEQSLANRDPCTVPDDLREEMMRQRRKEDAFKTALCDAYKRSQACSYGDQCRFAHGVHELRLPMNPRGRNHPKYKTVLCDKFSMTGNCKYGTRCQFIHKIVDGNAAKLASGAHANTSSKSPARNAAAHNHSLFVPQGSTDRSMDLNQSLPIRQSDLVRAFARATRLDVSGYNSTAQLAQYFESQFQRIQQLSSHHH

[4] = target: Induced myeloid leukemia cell differentiation protein Mcl-1 (Homo sapiens, UniProt Q07820); assay type: functional
[5] = target: T3, Carboxy-terminal domain RNA polymerase II polypeptide A small phosphatase 1 (Homo sapiens, UniProt Q9GZU7); test: CTDSP1 inhibitors, concentration-response, biochemical, absorbance readout, ultra-high-throughput screen actives (AID 540297); assay type: functional
T3 sequence (Q9GZU7 whole entry): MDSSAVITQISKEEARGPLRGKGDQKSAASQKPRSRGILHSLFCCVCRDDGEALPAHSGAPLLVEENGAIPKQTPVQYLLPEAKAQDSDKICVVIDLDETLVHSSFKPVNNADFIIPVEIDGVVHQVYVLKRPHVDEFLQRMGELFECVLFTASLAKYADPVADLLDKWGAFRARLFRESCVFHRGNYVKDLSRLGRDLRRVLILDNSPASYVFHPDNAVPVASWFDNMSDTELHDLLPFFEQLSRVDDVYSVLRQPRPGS

[6] = target: T4, Calpain-2 catalytic subunit (Sus scrofa, UniProt P43367); test: m-calpain protease blockers, concentration series – biochemical, fluorogenic peptide substrate, dose response (AID 1420); assay type: functional
T4 sequence (P43367 whole entry): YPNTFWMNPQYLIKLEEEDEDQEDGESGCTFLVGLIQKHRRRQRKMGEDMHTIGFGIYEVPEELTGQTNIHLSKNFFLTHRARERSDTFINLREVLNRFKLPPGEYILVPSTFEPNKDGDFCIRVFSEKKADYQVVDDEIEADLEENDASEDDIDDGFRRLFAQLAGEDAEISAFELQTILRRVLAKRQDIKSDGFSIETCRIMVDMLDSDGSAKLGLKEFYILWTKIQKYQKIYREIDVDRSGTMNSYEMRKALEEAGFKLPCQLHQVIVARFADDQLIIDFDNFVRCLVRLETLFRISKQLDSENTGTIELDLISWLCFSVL

[7] = Luminescence Cell-Based Dose Confirmation HTS to Identify Activators of 5'UTR Stem-Loop Driven Alpha-Synuclein mRNA Translation in H4 Neuroglioblastoma Cells. [Related pubchem assays: 1829 (Project Summary), 1814 (Primary HTS)]; assay type: functional
[8] = test system: H4; test: Luminescence Cell-Based Dose Response HTS to Identify Activators of 5'UTR Stem-Loop Driven Prion Protein mRNA Translation in H4 Neuroglioblastoma Cells. [Related pubchem assays: 1829 (Project Summary), 1814 (Primary HTS)]; assay type: functional; conditions: Homo sapiens
[9] = Luminescence Cell-Based Dose Response HTS to Identify Activators of Luciferase Translation or Activity in H4 […] Cells. [Related pubchem assays: 1829 (Project Summary), 1814 (Primary HTS)]; assay type: functional
[10] = target: FAD-linked sulfhydryl oxidase ALR (Homo sapiens, UniProt P55789); test: ALR-catalysed DTT oxidation blockers – biochemical, H2O2 detection, luminescence, cherry-pick, dose response (AID 493248)
[11] = target: T5, Protein skinhead-1 (Caenorhabditis elegans, UniProt P34707); assay type: functional
T5 sequence (P34707 whole entry): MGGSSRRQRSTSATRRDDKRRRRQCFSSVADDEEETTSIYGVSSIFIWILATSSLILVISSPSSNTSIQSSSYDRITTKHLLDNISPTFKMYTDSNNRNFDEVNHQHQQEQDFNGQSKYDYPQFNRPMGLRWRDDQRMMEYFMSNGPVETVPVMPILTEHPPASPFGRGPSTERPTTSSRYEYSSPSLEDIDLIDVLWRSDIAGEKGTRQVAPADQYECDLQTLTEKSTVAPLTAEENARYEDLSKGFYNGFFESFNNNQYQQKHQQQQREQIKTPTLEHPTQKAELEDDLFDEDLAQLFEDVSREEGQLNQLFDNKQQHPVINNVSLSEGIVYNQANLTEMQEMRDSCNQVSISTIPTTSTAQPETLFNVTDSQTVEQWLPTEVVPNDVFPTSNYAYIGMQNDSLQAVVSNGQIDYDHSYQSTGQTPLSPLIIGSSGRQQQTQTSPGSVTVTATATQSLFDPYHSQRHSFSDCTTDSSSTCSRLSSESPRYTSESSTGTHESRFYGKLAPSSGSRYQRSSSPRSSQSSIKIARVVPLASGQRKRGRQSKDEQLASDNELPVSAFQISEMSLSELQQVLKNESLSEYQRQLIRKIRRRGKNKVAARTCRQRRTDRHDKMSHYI

[12] = loss of viability in HepG2 cells – cell-based, CellTiter-Glo, cherry-picked, cytotoxicity control for Shn3 inhibitor project, dose response (AID 624134); assay type: functional
[13] = non-specific 3'UTR reporter inhibition in Clone20-Shn3RL – cell-based, Renilla luciferase, cherry-picked, counter-screen for Shn3 inhibitor project, dose response (AID 624133); assay type: functional
[14] = reduction of Shn3 3'UTR-driven luciferase in osteoblasts – cell-based, Clone20 osteoblasts, firefly luciferase, cherry-picked, dose response (AID 624132); assay type: functional;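 further: firefly luciferase luminescence from reporter carrying the Shn3 3'UTR in osteoblasts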
[15] = test system: BJ; test: cells; assay type: functional, cell-based; conditions: Homo sapiens
[16] = DRD fibroblast viability loss – cell-based, non-viral oncogenic, luminescence, dose response (AID 1934); assay type: functional; conditions: Homo sapiens
[17] = test system: BJ; test: BJ-TERT fibroblast viability loss – cell-based, RAS-independent, luminescence, dose response (AID 1933); assay type: functional; conditions: Homo sapiens
[18] = test system: BJ; test: BJ-TERT-LT-ST fibroblast viability loss – cell-based, RAS-independent, luminescence, dose response (AID 1935); assay type: functional; conditions: Homo sapiens;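 further: BJ fibroblasts immortalized with TERT plus LT and ST oncogenes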
[19] = target: Cytochrome P450 2C9 (Homo sapiens, UniProt P11712)
[20] = HIV-1 AD8 envelope cell-cell fusion blockers – cherry-pick, dose response (AID 652062); assay type: functional, cell-based;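 further: luciferase signal from cell-cell fusion driven by HIV-1 clade B AD8 Env; potency is for inhibitors of fusion seen as a drop in luminescence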
[21] = blockers of HIV-1 envelope-mediated cell-cell fusion – cherry-pick, dose response (AID 652057); assay type: functional, cell-based
[22] = blockers of HIV-1 ZM109 envelope-driven cell-cell fusion – HeLa effector, CEM target cells, luciferase, cherry-pick, dose response (AID 652058); assay type: functional, cell-based;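 further: luciferase signal from HIV-1 Env mediated cell-cell fusion of effector and target cells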
[23] = P. falciparum Dd2 growth inhibitors, dose response, SYBR Green, cherry-picked samples (AID 1159567); assay type: functional, cell-based

Chain of Large T antigen (P03070 whole entry): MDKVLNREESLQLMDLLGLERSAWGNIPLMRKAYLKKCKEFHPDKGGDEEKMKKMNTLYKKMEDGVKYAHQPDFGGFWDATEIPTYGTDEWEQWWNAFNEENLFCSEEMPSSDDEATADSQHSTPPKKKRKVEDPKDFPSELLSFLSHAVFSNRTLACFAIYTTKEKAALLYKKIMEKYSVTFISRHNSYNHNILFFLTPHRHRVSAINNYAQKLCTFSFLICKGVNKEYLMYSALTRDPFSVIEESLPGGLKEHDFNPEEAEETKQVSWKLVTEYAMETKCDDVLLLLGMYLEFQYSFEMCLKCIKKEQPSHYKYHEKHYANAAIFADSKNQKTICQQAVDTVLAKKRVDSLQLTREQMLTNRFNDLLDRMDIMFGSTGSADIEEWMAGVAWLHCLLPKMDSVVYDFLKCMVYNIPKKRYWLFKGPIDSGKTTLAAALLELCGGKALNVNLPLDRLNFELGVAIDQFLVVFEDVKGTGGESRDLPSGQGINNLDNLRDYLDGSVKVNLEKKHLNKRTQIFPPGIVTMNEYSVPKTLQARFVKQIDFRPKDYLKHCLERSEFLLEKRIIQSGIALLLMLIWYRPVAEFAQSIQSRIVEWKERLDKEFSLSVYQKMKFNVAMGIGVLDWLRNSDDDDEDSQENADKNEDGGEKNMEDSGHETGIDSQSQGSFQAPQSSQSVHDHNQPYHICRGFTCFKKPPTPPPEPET
Chain of Induced myeloid leukemia cell differentiation protein Mcl-1 (Q07820 whole entry, the tested form may be a part): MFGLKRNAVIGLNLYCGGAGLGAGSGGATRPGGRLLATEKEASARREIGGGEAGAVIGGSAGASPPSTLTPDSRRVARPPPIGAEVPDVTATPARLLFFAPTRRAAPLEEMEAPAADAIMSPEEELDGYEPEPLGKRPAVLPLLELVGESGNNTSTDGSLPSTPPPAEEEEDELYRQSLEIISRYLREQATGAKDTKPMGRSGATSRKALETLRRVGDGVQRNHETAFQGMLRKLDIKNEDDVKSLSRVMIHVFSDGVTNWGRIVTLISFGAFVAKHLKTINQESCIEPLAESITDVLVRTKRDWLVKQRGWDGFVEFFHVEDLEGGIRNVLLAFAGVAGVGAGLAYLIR
Chain of FAD-linked sulfhydryl oxidase ALR (P55789 whole entry): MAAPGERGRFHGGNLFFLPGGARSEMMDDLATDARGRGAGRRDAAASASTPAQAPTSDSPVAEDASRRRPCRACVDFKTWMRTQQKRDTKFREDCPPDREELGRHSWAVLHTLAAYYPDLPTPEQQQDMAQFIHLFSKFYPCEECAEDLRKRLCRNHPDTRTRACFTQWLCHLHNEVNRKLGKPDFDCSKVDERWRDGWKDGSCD
Chain of Cytochrome P450 2C9 (P11712 whole entry, the tested form may be a part): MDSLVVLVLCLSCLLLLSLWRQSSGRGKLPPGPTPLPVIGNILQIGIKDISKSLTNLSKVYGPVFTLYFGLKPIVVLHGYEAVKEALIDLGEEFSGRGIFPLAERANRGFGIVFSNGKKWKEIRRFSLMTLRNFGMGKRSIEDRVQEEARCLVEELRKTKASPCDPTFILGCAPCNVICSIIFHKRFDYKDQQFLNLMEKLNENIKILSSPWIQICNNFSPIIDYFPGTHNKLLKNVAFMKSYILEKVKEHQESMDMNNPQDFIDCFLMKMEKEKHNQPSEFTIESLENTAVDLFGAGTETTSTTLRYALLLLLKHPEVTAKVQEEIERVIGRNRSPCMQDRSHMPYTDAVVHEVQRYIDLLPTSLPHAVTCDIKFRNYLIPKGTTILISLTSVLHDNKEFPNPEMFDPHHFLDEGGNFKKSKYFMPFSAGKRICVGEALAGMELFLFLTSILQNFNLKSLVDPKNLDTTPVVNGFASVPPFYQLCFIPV

Cc1ccc2c(c1)N/C(=C\C(=O)CC(C)C)C(=O)O2
IC50 [1]: 7.15 µM (active) | EC50 [2]: > 300 µM (not active) | EC50 [3]: > 300 µM (not active)

Cc1cccc(NC2=NC(=O)/C(=C/C=C/c3ccco3)S2)c1
IC50 [4]: 11.4 µM (active)

CC1(C(O)(C#CC[N+]2(C)CCCCC2)c2ccccc2)CCCC1 (stereo not given)
IC50 [5]: 9.1 µM (active)

CC(C)Cn1c(S)nnc1-c1csc2c1CCCC2
IC50 [6]: 13.5 µM (not active)

CSc1cccc(NC(=O)CSc2ccc(Cl)cc2)c1
IC50 [6]: 8.93 µM (not active)

NC(=O)c1ccc(-n2nnnc2Oc2ccccc2C(=O)N2CCOCC2)cc1
EC50 [7]: 8.06 µM (active) | IC50 [6]: 3.94 µM (not active) | EC50 [8]: > 120 µM (not active) | EC50 [9]: 31.4 µM (inconclusive)

O=[N+]([O-])c1ccc(CSC2=NCCS2)cc1
AC50 [10]: 5.31 µM (active)

CCN(CC)c1ccc(N/C=C2\C(=O)NC(=O)N(c3cc(OC)ccc3OC)C2=O)cc1
IC50 [1]: 19.8 µM (active) | EC50 [2]: > 300 µM (not active) | EC50 [3]: > 300 µM (not active)

CCOC(=O)/C=C1\CC(C(=O)OCC)Oc2c(OC)cccc21 (stereo not given)
IC50 [5]: 16.7 µM (active)

O=C(OCc1ccccc1)Oc1cncc(C(=O)O)c1
AC50 [10]: 0.072 µM (active)

C=CCNC(=O)c1ccc(Cn2c(=S)[nH]c3cc4c(cc3c2=O)OCO4)cc1
IC50 [5]: 8.27 µM (active)

Cc1ccc(NC(=O)CSc2ccccc2NC(=O)c2ccccc2Cl)cc1Cl
IC50 [5]: 7.38 µM (active)

Cc1ccc(SCCNC(=O)CN2C(=O)c3ccccc3S2(=O)=O)cc1
IC50 [11]: > 100 µM (inactive)

O=C(Nc1ccc2c(c1)nc1n2CCN(C2CCCCC2)C1)c1ccco1
IC50 [4]: 6.52 µM (active)

NS(=O)(=O)c1ccc(CCNCc2cc(Br)ccc2OCc2ccccc2F)cc1
AC50 [12]: 36.9 µM (active) | IC50 [6]: > 50 µM (not active) | AC50 [13]: 8.75 µM (active) | AC50 [14]: 4.65 µM (active)

O=C(COC(=O)CC12CC3CC(CC(C3)C1)C2)Nc1cccnc1Cl
IC50 [6]: > 50 µM (not active)

COc1ccc(OCCN(C)C(=O)c2cccc(S(=O)(=O)N(C)c3ccccc3)c2)cc1
IC50 [11]: > 100 µM (inactive)

COCCN(C(=O)COC(=O)Cc1coc2cc3c(cc12)CCC3)c1c(N)n(Cc2ccccc2)c(=O)[nH]c1=O
IC50 [5]: 6.23 µM (active)

Fc1ccc(OCc2nc3ccccc3s2)cc1
IC50 [11]: > 100 µM (inactive)

Fc1ccc(CSc2nnc(-c3ccco3)o2)cc1
IC50 [11]: 30.1 µM (active)

N#Cc1c(-c2ccco2)cc(-c2ccccc2)[nH]c1=O
IC50 [1]: 68.7 µM (active)

Cc1nn2cc(-c3cccc(Cl)c3)cnc2c1Br
EC50 [15]: 68.2 µM (active) | EC50 [16]: 16 µM (active) | EC50 [17]: 17.4 µM (active) | EC50 [18]: 20.3 µM (active)

CN(C)S(=O)(=O)NC(c1ccccc1)c1ccccc1
IC50 [11]: > 100 µM (inactive)

O=C(CSc1nnc(CNc2ccc(F)cc2)n1Cc1ccco1)NC1CC1
IC50 [11]: > 100 µM (inactive)

CC(=O)c1ccc(S(=O)(=O)N2CCNC(=O)C2)cc1
AC50 [10]: 3.33 µM (active)

COC(=O)c1ccc(NC(=O)c2cccc(Cl)c2)o1
AC50 [10]: 20.9 µM (active)

O=C(NCCCN1CCc2ccccc2C1)Nc1ccc(Cl)cc1
AC50 [19]: 14.1 µM (inconclusive) | AC50 [20]: 39.9 µM (active) | AC50 [21]: 3.52 µM (active)

COC(=O)c1cc(-c2cccc(OC)c2)[nH]n1
IC50 [11]: > 100 µM (inactive)

Cn1c(/C(C#N)=C(\O)c2ccc([N+](=O)[O-])s2)nc2ccccc21
IC50 [11]: > 100 µM (inactive)

COc1cccc(NC(=O)CN(C)CC(=O)Nc2ccc(Cl)cc2[N+](=O)[O-])c1
IC50 [6]: 24 µM (not active)

C[C@H](CO)N1C[C@H](C)[C@H](CN(C)C(=O)Nc2ccc(F)cc2)OCc2ccccc2-c2c(n(C)c3ccccc23)C1=O
AC50 [20]: < 0.26 µM (active) | AC50 [22]: < 0.26 µM (active) | AC50 [21]: < 0.26 µM (active)

C#Cc1ccc([C@@H]2C=C(C(=O)O)O[C@H](OCC)[C@H]2CCCO)cc1
IC50 [5]: 4.59 µM (active)

Cc1ccc(S(=O)(=O)N/N=C/c2ccc(O)c(O)c2)cc1[N+](=O)[O-]
AC50 [10]: 1.06 µM (active)

COc1cc(/C=N\Nc2nc(-c3cccs3)c(NC(C)=O)s2)ccc1O
IC50 [1]: 27.8 µM (active) | IC50 [4]: 2.72 µM (active)

CCN(CC)c1ccc(/C=N/NC(=O)CNC(=O)c2ccccn2)cc1
AC50 [10]: 0.91 µM (active)

O=C(O)c1cccc(N/N=C/c2cc(Br)cc(Br)c2O)c1
AC50 [10]: 1.99 µM (active)

COc1cc(/C=N/NC(=O)CCc2c(C)n[nH]c2C)ccc1O
IC50 [1]: 12.9 µM (active)

CC(C)(C)[S@@+]([O-])N1Cc2cc(C(=O)N3CCc4ccccc4C3)nc(-c3cccc(-c4ccncc4)c3)c2[C@H]1CCO
AC50 [23]: 5.87 µM (active)

COc1ccc2c3c(n(C)c2c1)[C@H](CO)N(Cc1ccccc1OC)CC31CN(CC2CCOCC2)C1
AC50 [23]: 4.81 µM (active)

COc1ccc2c3c(n(C)c2c1)[C@@H](CO)N(C(=O)Nc1ccccc1F)CC31CCN(C)CC1
AC50 [23]: 5.95 µM (active)

COc1ccc2c3c([nH]c2c1)[C@@H](CO)N(Cc1cc(F)ccc1F)CC31CN(C(=O)C2CCC2)C1
AC50 [23]: 6.17 µM (active)

CC(C)c1cn([C@H]2C[C@@H]3O[C@H](CO)CC[C@@H]3O[C@@H]2CCc2ccc(C#CC3(O)CCCC3)cc2)nn1
AC50 [23]: 6.12 µM (active)
